Source: patent US20250026765A1, “SPIROHETEROCYCLE DERIVATIVE HAVING SEROTONIN RECEPTOR BINDING ACTIVITY” (Shionogi & Co., Ltd., priority 2021, published 2025)
pKi: −log10 of the molar value. Where two headings read alike, the source gives them in different places.

How the values were obtained:
[1] = target: human recombinant 5-HT2C receptor (Homo sapiens (Human), UniProt P28335); assay: 5-HT2C receptor binding inhibition test ([3H]-Mesulergine); conditions: Jump-In HEK cell membrane, 37° C. 2 hours
Procedure: Test Example 2: 5-HT2C Receptor Binding Inhibition Test
(§1) (Each Experimental Condition)
Cell membrane: 0.5 μg of Jump-In HEK cell membrane (expressing human recombinant 5-HT2C receptor) per well
(§2) Assay buffer: Tris-HCl 50 mmol/L (pH 7.4) containing NaCl 120 mmol/L, MgCl2·6H2O 1 mmol/L, KCl 5 mmol/L, 0.1% BSA and CaCl2 2 mmol/L
Radioactive ligand: [^3H]-Mesulergine with a final concentration of around Kd value calculated by the following method
Non-specific ligand: Serotonin HCl with a final concentration of […]
(§3) The Kd value is calculated when the lot of cell membrane is changed. In advance, 0.5 μL of a 1 mmol/L compound for non-specific binding calculation dissolved in DMSO or DMSO is dispensed into a microplate, and the cell membrane is diluted with an Assay buffer. The radioactive ligand solution is serially diluted and the count is confirmed with a liquid scintillator. Assay buffer containing diluted cell membrane is dispensed into a microplate at 50 μL/well. Then, the radioactive ligand solution is dispensed into a microplate at 50 μL/well, and the plate is sealed. It is allowed to stand at 37° C. for 2 hours. During this period, 50 mmol/L Tris-HCl (pH 7.4) is dispensed into a GF/B UniFilter plate at 50 μL/well and allowed to stand at 4° C. for 1 hour or longer. After that, filtration is performed with Cell harvester (PerkinElmer). The radioactive ligand solution is dispensed into an empty well of the GF/B UniFilter plate at 10 μL/well. After the GF/B UniFilter plate is dried at room temperature, MicroScinti 20 is dispensed into the GF/B UniFilter plate at 50 μL/well to seal the plate. The GF/B UniFilter plate is allowed to stand overnight at room temperature. The radioactivity of [^3H]-Mesulergine bound to the 5-HT2C receptor is measured using Microbeta2 (PerkinElmer) at a measurement time of 1 min/well. The Saturation curve is drawn from the measured value, and the Kd value is calculated from the slope of the Scatchard Plot.
(§4) (Binding Test of the Compound According to the Present Invention)
In advance, 0.5 μL of the compound solution dissolved in DMSO is dispensed into a microplate, and the cell membrane and the hot ligand are diluted with Assay buffer, respectively. Then, the Assay buffer containing the diluted cell membrane is dispensed into a microplate at 50 μL/well. Then, the radioactive ligand solution is dispensed into a microplate at 50 μL/well, and the plate is sealed. Then, it is allowed to stand at 37° C. for 2 hours. During this period, 50 mmol/L Tris-HCl (pH 7.4) is dispensed into a GF/B UniFilter plate at 50 μL/well and allowed to stand at 4° C. for 1 hour or longer. After that, filtration is performed with Cell harvester (PerkinElmer). After the GF/B UniFilter plate is dried at room temperature, MicroScinti 20 is dispensed into the GF/B UniFilter plate at 50 μL/well, and the plate is sealed. The GF/B UniFilter plate is allowed to stand overnight at room temperature. The radioactivity of [^3H]-Mesulergine bound to the 5-HT2C receptor is measured using Microbeta2 (PerkinElmer) at a measurement time of 1 min/well. The non-specific binding is calculated from the radioactivity of […] in the presence of 500 μmol/L Serotonin HCl which is the unlabeled ligand, and the total binding is calculated from the radioactivity of [^3H]-Mesulergine in the absence of the compound according to the present invention (Vehicle). Finally, the Ki value is calculated from the dose-response curve.
(§5) (The binding activity of the compound according to the present invention is calculated from the following binding inhibition rate (%).)
(§6) [formula] • a; mean cpm of non-specific binding • b; average cpm of total binding • c; cpm in the presence of the test compound

[2] = target: human recombinant 5-HT2A receptor (Homo sapiens (Human), UniProt P28223); assay: 5-HT2A receptor binding inhibition test ([3H]-Ketanserin); conditions: Jump-In HEK cell membrane, 25° C. 1.5 hours
Procedure: Test Example 1: 5-HT2A Receptor Binding Inhibition Test
as §1
Cell membrane: 15 μg of Jump-In HEK cell membrane (expressing human recombinant 5-HT2A receptor) per well
as §2
Radioactive ligand: [^3H]-Ketanserin with a final concentration of around Kd value calculated by the following method
Non-specific ligand: Serotonin HCl with a final concentration of 500 μmol/L
as §3, with “at room temperature (25° C.)” for “at 37° C.”, “for 1.5” for “for 2”, “of [^3H]-Ketanserin” for “of [^3H]-Mesulergine”, “the 5-HT2A” for “the 5-HT2C”
as §4
In advance, 0.5 μL of the compound solution dissolved in DMSO is dispensed into a microplate, and the cell membrane and the hot ligand are diluted with Assay buffer, respectively. Then, the Assay buffer containing the diluted cell membrane is dispensed into a microplate at 50 μL/well. Then, the radioactive ligand solution is dispensed into a microplate at 50 μL/well, and the plate is sealed. Then, it is allowed to stand at room temperature (25° C.) for 1.5 hours. During this period, 50 mmol/L Tris-HCl (pH 7.4) is dispensed into a GF/B UniFilter plate at 50 μL/well and allowed to stand at 4° C. for 1 hour or longer. After that, filtration is performed with Cell harvester (PerkinElmer). After the GF/B UniFilter plate is dried at room temperature, MicroScinti 20 is dispensed into the GF/B UniFilter plate at 50 μL/well to seal the plate. The GF/B UniFilter plate is allowed to stand overnight at room temperature. The radioactivity of [^3H]-Ketanserin bound to the 5-HT2A receptor is measured using Microbeta2 (PerkinElmer) at a measurement time of 1 min/well. The non-specific binding is calculated from the radioactivity of [^3H]-Ketanserin in the presence of 500 μmol/L Serotonin HCl which is the unlabeled ligand, and the total binding is calculated from the radioactivity of [^3H]-Ketanserin in the absence of the compound according to the present invention (Vehicle). Finally, the Ki value is calculated from the dose-response curve.
as §5, §6

[3] = read-out: human serotonin 5-HT2C receptor binding activity Ki
[4] = read-out: human serotonin 5-HT2A receptor binding activity Ki

Sequence of human recombinant 5-HT2A receptor (P28223 whole entry): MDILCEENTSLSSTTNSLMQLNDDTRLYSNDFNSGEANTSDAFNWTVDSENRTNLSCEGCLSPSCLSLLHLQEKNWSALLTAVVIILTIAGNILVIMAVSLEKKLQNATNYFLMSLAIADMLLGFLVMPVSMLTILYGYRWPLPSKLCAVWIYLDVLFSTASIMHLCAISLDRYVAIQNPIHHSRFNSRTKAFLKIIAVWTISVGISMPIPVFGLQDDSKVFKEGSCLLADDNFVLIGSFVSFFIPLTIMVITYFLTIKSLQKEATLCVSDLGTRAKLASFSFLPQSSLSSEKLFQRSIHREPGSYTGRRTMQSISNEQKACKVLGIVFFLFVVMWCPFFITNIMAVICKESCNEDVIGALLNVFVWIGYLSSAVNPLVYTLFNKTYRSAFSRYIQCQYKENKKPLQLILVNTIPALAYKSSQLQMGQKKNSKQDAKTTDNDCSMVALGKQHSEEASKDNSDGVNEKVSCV
Sequence of human recombinant 5-HT2C receptor (P28335 33-458): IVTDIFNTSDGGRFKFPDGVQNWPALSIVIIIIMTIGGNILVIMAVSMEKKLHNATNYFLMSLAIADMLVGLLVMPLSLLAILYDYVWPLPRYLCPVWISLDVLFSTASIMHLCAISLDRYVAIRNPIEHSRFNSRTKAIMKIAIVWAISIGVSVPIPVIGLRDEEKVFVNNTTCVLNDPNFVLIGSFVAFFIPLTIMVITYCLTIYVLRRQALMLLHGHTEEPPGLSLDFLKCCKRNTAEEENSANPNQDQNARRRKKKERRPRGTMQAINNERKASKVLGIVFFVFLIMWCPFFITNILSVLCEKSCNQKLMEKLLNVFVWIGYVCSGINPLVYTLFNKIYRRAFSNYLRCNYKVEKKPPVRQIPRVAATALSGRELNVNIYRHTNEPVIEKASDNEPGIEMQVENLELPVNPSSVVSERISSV

| Compound | pKi ([1]; read-out: h-5-HT2C Ki) | pKi ([2]; read-out: h-5-HT2A Ki) | pKi [1, 3] | pKi [2, 4] |
| --- | --- | --- | --- | --- |
| CC(C)COc1ccc(CN(Cc2ccn(C)n2)C2=NOC3(CCNCC3)N2)cc1 [Compound I-036] | > 8.00 | > 8.00 | – | – |
| Cc1nc(CN(Cc2ccc(OCC(C)C)cc2)C2=NC(=O)C3(CCN(C)CC3)N2)co1 [Compound I-039] | > 8.00 | 7.00 to 8.00 | – | – |
| CC(C)COc1ccc(CN(Cc2cnn(C)c2)C2=NOC3(CCN(C)CC3)N2)cc1 [Compound I-046] | 6.30 to 7.00 | 7.00 to 8.00 | – | – |
| Cc1nc(CN(Cc2ccc(OCC(F)(F)F)cc2)C2=NOC3(CCN(C)CC3)N2)co1 [Compound I-047] | > 8.00 | > 8.00 | – | – |
| Cc1nc(CN(Cc2ccc(OCC(C)C)cc2)C2=NOC3(CCNCC3)N2)co1 [Compound I-048] | > 8.00 | > 8.00 | – | – |
| CC(C)COc1ccc(CN(Cc2coc(C3CC3)n2)C2=NOC3(CCN(C)CC3)N2)cc1 [Compound I-049] | – | – | 9.28 | 9.02 |
| CC(C)COc1ccc(CN(Cc2coc(C(F)F)n2)C2=NOC3(CCN(C)CC3)N2)cc1 [Compound I-050] | > 8.00 | > 8.00 | – | – |
| Cc1nc(CN(Cc2ccc(OCC(C)C)cc2)C2=NC3(CCNCC3)ON2C)co1 [Compound I-051] | 6.30 to 7.00 | 6.30 to 7.00 | – | – |
| Cc1nc(CN(Cc2ccc(OCC(C)C)cc2)C2=NC3(CCN(C)CC3)ON2C)co1 [Compound I-052] | 6.30 to 7.00 | 6.30 to 7.00 | – | – |
| Cc1ncc(CN(Cc2ccc(OCC(C)C)cc2)C2=NOC3(CCN(C)CC3)N2)o1 [Compound I-053] | > 8.00 | > 8.00 | – | – |
| Cc1coc(CN(Cc2ccc(OCC(C)C)cc2)C2=NOC3(CCN(C)CC3)N2)n1 [Compound I-054] | 7.00 to 8.00 | > 8.00 | – | – |
| CC(C)COc1ccc(CN(Cc2ccc(F)cc2)C2=NOC3(CCN(C)CC3)N2)cc1 [Compound I-055] | 7.00 to 8.00 | > 8.00 | – | – |
| Cc1nc(CN(Cc2ccc(OCC(C)C)cc2)C2=NC(=O)C3(CCN(C)CC3)N2)cs1 [Compound I-057] | – | – | 8.66 | 8.28 |
| Cc1cc(CN(Cc2ccc(OCC(C)C)cc2)C2=NC(=O)C3(CCN(C)CC3)N2)nn1C [Compound I-058] | 6.30 to 7.00 | 7.00 to 8.00 | – | – |
| Cc1cnc(CN(Cc2ccc(OCC(C)C)cc2)C2=NC(=O)C3(CCN(C)CC3)N2)nc1 [Compound I-061] | 7.00 to 8.00 | 7.00 to 8.00 | – | – |
| Cc1ccc(CN(Cc2ccc(OCC(C)C)cc2)C2=NC(=O)C3(CCN(C)CC3)N2)nc1 [Compound I-062] | 7.00 to 8.00 | > 8.00 | – | – |
| CC(C)COc1ccc(CN(Cc2ccco2)C2=NC(=O)C3(CCN(C)CC3)N2)cc1 [Compound I-063] | 7.00 to 8.00 | > 8.00 | – | – |
